The test system of one data set is thrombus formation. The conditions noted are these: cited from earlier work.
Data set [1] can be described thus: Pharmacokinetic study: compound concentration in mouse blood plasma after PO and IV administration. The class given is in vivo, mice. The conditions noted are these: for Concentration in Plasma, Mouse 2: value marked as outlier; for concentration at 2 h / concentration at 4 h / concentration at 7 h: mouse, plasma, 30 mg/kg. The method, then:
The blood plasma concentration of compound A3 in mice was determined following per os, oral compound administration (“PO”) and intravenous (“IV”) administration
Calibration curve. The concentration range was evaluated from 1-5000 ng/ml for compound A3. The curve was built with linear regression with weighing (1/X2). The linear regression analysis was performed by plotting the peak area ratio (y) against the concentration (x) in ng/mL.
Instrument Conditions. The LC-MS and mass spectrometry conditions for the compounds tested are shown below.
Results. The individual and average compound A3 concentration-time data for IV and PO dosed groups are listed in Table 1, and graphically presented in FIG. 1.

The subject of data set [2] is phospho-VASP (serine 157) in washed human platelets. In words: Vasodilator-stimulated phosphoprotein phosphorylation in human platelets (Western blot). The class given is cell-based. The conditions noted are these: washed human platelets treated for one minute; 5 nm to 20 μM tested. The protocol: Citrated whole blood was centrifuged (200 g for 10 min) to isolate platelet-rich plasma. Platelet-rich plasma was treated with acid citrate dextrose (2.5% sodium citrate, 1.5% citric acid, 2.0% D-glucose) and apyrase (0.02 U/mL), and then centrifuged (2000 g for 10 mins) to pellet the platelets. Platelets were resuspended at 3.0×10^8 platelets/mL in Tyrode's buffer (10 mM HEPES, 12 mM NaHCO3, 127 mM NaCl, 5 mM KCl, 0.5 mM NaH2PO4, 1 mM MgCl2, and 5 mM glucose) unless otherwise stated.
Washed platelets were treated with forskolin (0.5 μM), 12-HETre (20 μM), or compound A3 (5 nm, 10 nm, 25 nm, 50 nm, 100 n, 250 nm, 1 μM, 5 μM, 10 μM, and 20 μM) for one minute, then directly lysed in 5× Laemmli sample buffer (1.5 M Tris-HCl, pH 6.8, glycerol, 5% β-mercaptoethanol, 10% sodium dodecyl sulfate (SDS), and 1% bromophenol blue). The samples were boiled for five minutes and then run on a 10% SDS-PAGE gel. The levels of total and phospho-VASP (serine 157) were quantified by Western Blot using an Odyssey imaging system (LI-CoR). […] Compound A3 induced VASP phosphorylation at a concentration as low as 10 nm.
For orientation: Immunoblotting shows a protein as a band on a membrane.

A further data set concerns platelets. The conditions noted are these: cited from earlier work.

Read-outs that look alike come from different tables or passages of the source.

Regarding `CCCCC/C=C\C[C@H](O)/C=C/C=C\CCCCCCC(=O)O` [Compound 12-HETrE, 12(S)-hydroxyeicosatetrienoic acid], in the data set on thrombus formation (irrespective of 12-LOX expression), the “Thrombus formation following vessel injury” value is on record as “potently impaired thrombus formation”.
Take `CC(C)N(CCCCSc1n[nH]c(=O)[nH]1)c1cnc(-c2ccccc2)c(-c2ccccc2)n1` [Compound A3, 5-((4-((5,6-diphenylpyrazin-2-yl)(isopropyl)amino)butyl)thio)-2,4-dihydro-3H-1,2,4-triazol-3-one]: the “Concentration in Plasma, Mouse 2” value in data set [1] (PO 30 mg/kg, 2 h) is “*809.0 ng/ml”; in data set [1] (PO 30 mg/kg, 4 h) it was “*812.7 ng/ml”. Besides, the concentration at 2 h in data set [1] (iv, IV 30 mg/kg, 2 h, n=3, read-out: Concentration in Plasma, Mean) worked out at 164 ng/mL; in data set [1] (iv, IV 30 mg/kg, 2 h, read-out: Concentration in Plasma, Mouse 1), 203 ng/mL; in data set [1] (iv, IV 30 mg/kg, 2 h, read-out: Concentration in Plasma, Mouse 2) it was 158 ng/mL; in data set [1] (iv, IV 30 mg/kg, 2 h, read-out: Concentration in Plasma, Mouse 3) it was 131 ng/mL; in data set [1] (po, PO 30 mg/kg, 2 h, outlier left out, read-out: Concentration in Plasma, Mean) it was 119 ng/mL; in data set [1] (po, PO 30 mg/kg, 2 h, read-out: Concentration in Plasma, Mouse 1) it was 186 ng/mL. Also, the concentration at 2 h in data set [1] (po, PO 30 mg/kg, 2 h, read-out: Concentration in Plasma, Mouse 3) came to 52.5 ng/mL. Further, the concentration at 4 h in data set [1] (iv, IV 30 mg/kg, 4 h, n=3, read-out: Concentration in Plasma, Mean) was 106 ng/mL; in data set [1] (iv, IV 30 mg/kg, 4 h, read-out: Concentration in Plasma, Mouse 1), 135 ng/mL; in data set [1] (iv, IV 30 mg/kg, 4 h, read-out: Concentration in Plasma, Mouse 2) it was 80.3 ng/mL; in data set [1] (iv, IV 30 mg/kg, 4 h, read-out: Concentration in Plasma, Mouse 3) it was 102 ng/mL; in data set [1] (po, PO 30 mg/kg, 4 h, outlier left out, read-out: Concentration in Plasma, Mean), 34.5 ng/mL; in data set [1] (po, PO 30 mg/kg, 4 h, read-out: Concentration in Plasma, Mouse 1), 46.5 ng/mL. Moreover, the concentration at 4 h in data set [1] (po, PO 30 mg/kg, 4 h, read-out: Concentration in Plasma, Mouse 3) amounted to 22.5 ng/mL. Besides, the concentration at 7 h in data set [1] (iv, IV 30 mg/kg, n=3, read-out: Concentration in Plasma, Mean) is 97.6 ng/mL; in data set [1] (iv, IV 30 mg/kg, read-out: Concentration in Plasma, Mouse 1) it was 123 ng/mL; in data set [1] (iv, IV 30 mg/kg, read-out: Concentration in Plasma, Mouse 2), 76.9 ng/mL; in data set [1] (iv, IV 30 mg/kg, read-out: Concentration in Plasma, Mouse 3), 92.7 ng/mL; in data set [1] (po, PO 30 mg/kg, n=3, read-out: Concentration in Plasma, Mean), 28.3 ng/mL; in data set [1] (po, PO 30 mg/kg, read-out: Concentration in Plasma, Mouse 1) it was 46.3 ng/mL. Further, the concentration at 7 h worked out at 19.1 ng/mL in data set [1] (po, PO 30 mg/kg, read-out: Concentration in Plasma, Mouse 2) and 19.3 ng/mL in data set [1] (po, PO 30 mg/kg, read-out: Concentration in Plasma, Mouse 3). Further, in data set [2], the “Lowest concentration that induced VASP phosphorylation” value was 10 nm.
With `CCCCC/C=C\C/C=C\C/C=C\CCCCCCC(=O)O` [DGLA, Dihomo-γ-linolenic acid], in the data set with thrombus formation (12-LOX−/− mice), the Thrombus formation entry was “unable to inhibit thrombus formation”. In addition, the “Platelet thrombus formation in vivo” value in the data set with thrombus formation (following an insult to the vessel wall) was “inhibited platelet thrombus formation in vivo”. In the data set with platelets, the “Platelet aggregation ex vivo” value was “inhibit platelet aggregation ex vivo”.

Values taken from US12269805B2, “Inhibitors of platelet function and methods for use of the same” (THE REGENTS OF THE UNIVERSITY OF MICHIGAN, priority 2018, dated 2025).
